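Dose response: 5 concentrations. Exposure: 48 h. Format: 96-well plates. Endpoint: linear interpolation; highest concentration if not reached. GI50 marks 50% less growth.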 Calls of active or inactive are those of the source. No stated cut-off is given here; in the data, active = GI50 up to about 1.1 µM and inactive = higher.
Tests used:
Experiment in all cases: DTP human tumour cell line panel, 48 h
[1] = system: 786-0
[2] = system: A498
[3] = system: A549
[4] = system: ACHN
[5] = system: BT-549
[6] = system: CAKI-1
[7] = system: COLO 205
[8] = system: DU-145
[9] = system: EKVX
[10] = system: HCT-116
[11] = system: HCT-15
[12] = system: HL-60
[13] = system: HOP-62
[14] = system: HOP-92
[15] = system: HT-29
[16] = system: Hs-578T
[17] = system: IGROV-1
[18] = system: K562
[19] = system: KM12
[20] = system: LOX IMVI
[21] = system: M14
[22] = system: MCF7
[23] = system: MDA-MB-231
[24] = system: MDA-MB-435
[25] = system: Malme-3M
[26] = system: NCI-H226
[27] = system: NCI-H23
[28] = system: NCI-H460
[29] = system: NCI-H522
[30] = system: NCI/ADR-RES
[31] = system: OVCAR-3
[32] = system: OVCAR-4
[33] = system: OVCAR-5
[34] = system: OVCAR-8
[35] = system: PC-3
[36] = system: RPMI-8226
[37] = system: SF-268
[38] = system: SF-295
[39] = system: SF-539
[40] = system: SK-MEL-28
[41] = system: SK-MEL-2
[42] = system: SK-MEL-5
[43] = system: SK-OV-3
[44] = system: SN12C
[45] = system: SNB-19
[46] = system: SNB-75
[47] = system: SR
[48] = system: SW-620
[49] = system: T47D
[50] = system: TK-10
[51] = system: U-251
[52] = system: UACC-257
[53] = system: UACC-62
[54] = system: UO-31
[55] = system: CCRF-CEM
[56] = system: HCC 2998
[57] = system: RXF 393

Which results are given for `COc1cc2nc(-c3cccs3)nc(N3CCN(c4ccccc4)CC3)c2cc1OC`?
GI50 [1]: > 100 µM (inactive); GI50 [2]: > 100 µM (inactive); GI50 [3]: > 100 µM (inactive); GI50 [4]: > 100 µM (inactive); GI50 [5]: > 100 µM (inactive); GI50 [6]: > 100 µM (inactive); GI50 [7]: > 100 µM (inactive); GI50 [8]: > 100 µM (inactive); GI50 [9]: > 100 µM (inactive); GI50 [10]: > 100 µM (inactive); GI50 [11]: > 100 µM; GI50 [12]: > 100 µM (inactive); GI50 [13]: > 100 µM (inactive); GI50 [14]: > 100 µM (inactive); GI50 [15]: > 100 µM (inactive); GI50 [16]: > 100 µM (inactive); GI50 [17]: > 100 µM (inactive); GI50 [18]: > 100 µM (inactive); GI50 [19]: > 100 µM (inactive); GI50 [20]: > 100 µM (inactive); GI50 [21]: > 100 µM (inactive); GI50 [22]: > 100 µM (inactive); GI50 [23]: > 100 µM (inactive); GI50 [24]: > 100 µM (inactive); GI50 [25]: > 100 µM (inactive); GI50 [26]: > 100 µM (inactive); GI50 [27]: > 100 µM (inactive); GI50 [28]: > 100 µM (inactive); GI50 [29]: > 100 µM (inactive); GI50 [30]: > 100 µM (inactive); GI50 [31]: > 100 µM (inactive); GI50 [32]: > 100 µM (inactive); GI50 [33]: > 100 µM (inactive); GI50 [34]: > 100 µM (inactive); GI50 [35]: > 100 µM (inactive); GI50 [36]: > 100 µM (inactive); GI50 [37]: > 100 µM (inactive); GI50 [38]: > 100 µM (inactive); GI50 [39]: > 100 µM (inactive); GI50 [40]: > 100 µM (inactive); GI50 [41]: > 100 µM (inactive); GI50 [42]: > 100 µM (inactive); GI50 [43]: > 100 µM (inactive); GI50 [44]: > 100 µM (inactive); GI50 [45]: 68.1 µM (inactive); GI50 [46]: > 100 µM (inactive); GI50 [47]: > 100 µM (inactive); GI50 [48]: > 100 µM (inactive); GI50 [49]: > 100 µM (inactive); GI50 [50]: > 100 µM (inactive); GI50 [51]: > 100 µM (inactive); GI50 [52]: > 100 µM (inactive); GI50 [53]: > 100 µM (inactive); GI50 [54]: > 100 µM (inactive)

`COc1ccc2sc(-n3nc4ccccc4c3Nc3nc4ccc(OC)cc4s3)nc2c1` was tested. Which GI50 [1] did it give?
Its GI50 is 1.64 µM (inactive).

And the GI50 [2]?
Its GI50 is 0.873 µM (active).

What about the GI50 [3] of the same compound?
Its GI50 is 3.77 µM (inactive).

And the GI50 [4]?
The GI50 was 2.6 µM (inactive).

What about the GI50 [5] of the same compound?
Its GI50 is 2.13 µM (inactive).

What about the GI50 [6] of the same compound?
The GI50 was 1.28 µM (inactive).

What about the GI50 [55] of the same compound?
The GI50 was 96.4 µM (inactive).

And the GI50 [7]?
Its GI50 is 14.9 µM (inactive).

What about the GI50 [8] of the same compound?
The GI50 was 2.98 µM (inactive).

What about the GI50 [9] of the same compound?
Its GI50 is 3.52 µM (inactive).

And the GI50 [56]?
The GI50 was 1.43 µM (inactive).

What about the GI50 [10] of the same compound?
Its GI50 is 1.8 µM (inactive).

What about the GI50 [11] of the same compound?
The GI50 was 10.5 µM.

What about the GI50 [13] of the same compound?
Its GI50 is 1.79 µM (inactive).

And the GI50 [14]?
Its GI50 is 3.12 µM (inactive).

And the GI50 [15]?
Its GI50 is 3.59 µM (inactive).

What about the GI50 [16] of the same compound?
Its GI50 is 1.46 µM (inactive).

What about the GI50 [17] of the same compound?
The GI50 was 2.02 µM (inactive).

What about the GI50 [18] of the same compound?
Its GI50 is 1.59 µM (inactive).

What about the GI50 [19] of the same compound?
The GI50 was 3.99 µM (inactive).

What about the GI50 [20] of the same compound?
The GI50 was 5.47 µM (inactive).

And the GI50 [21]?
The GI50 was 7.24 µM (inactive).

And the GI50 [22]?
The GI50 was 6.47 µM (inactive).

And the GI50 [23]?
The GI50 was 2.07 µM (inactive).

What about the GI50 [24] of the same compound?
Its GI50 is 3.24 µM (inactive).

What about the GI50 [25] of the same compound?
Its GI50 is 3.8 µM (inactive).

And the GI50 [26]?
Its GI50 is 2.9 µM (inactive).

What about the GI50 [27] of the same compound?
Its GI50 is 1.73 µM (inactive).

And the GI50 [28]?
The GI50 was 2.22 µM (inactive).

What about the GI50 [29] of the same compound?
The GI50 was 2.52 µM (inactive).

What about the GI50 [30] of the same compound?
The GI50 was 2.26 µM (inactive).

What about the GI50 [31] of the same compound?
Its GI50 is 1.79 µM (inactive).

What about the GI50 [32] of the same compound?
Its GI50 is 1.86 µM (inactive).

And the GI50 [33]?
Its GI50 is 2.88 µM (inactive).

And the GI50 [34]?
Its GI50 is 1.29 µM (inactive).

What about the GI50 [35] of the same compound?
The GI50 was 2.89 µM (inactive).

What about the GI50 [36] of the same compound?
Its GI50 is 0.887 µM (active).

And the GI50 [57]?
Its GI50 is 11 µM (inactive).

And the GI50 [37]?
Its GI50 is 5.01 µM (inactive).

And the GI50 [38]?
Its GI50 is 3.29 µM (inactive).

What about the GI50 [39] of the same compound?
Its GI50 is 0.92 µM (active).

What about the GI50 [40] of the same compound?
The GI50 was 7.67 µM (inactive).

What about the GI50 [41] of the same compound?
The GI50 was 15 µM (inactive).

What about the GI50 [42] of the same compound?
Its GI50 is 2.26 µM (inactive).

What about the GI50 [43] of the same compound?
The GI50 was 1.94 µM (inactive).

What about the GI50 [44] of the same compound?
The GI50 was 3.07 µM (inactive).

What about the GI50 [45] of the same compound?
Its GI50 is 2.33 µM (inactive).

What about the GI50 [46] of the same compound?
The GI50 was 3 µM (inactive).

And the GI50 [47]?
Its GI50 is 23.4 µM (inactive).

And the GI50 [48]?
Its GI50 is 7.5 µM (inactive).

What about the GI50 [49] of the same compound?
The GI50 was 1 µM (active).

What about the GI50 [50] of the same compound?
Its GI50 is 2.62 µM (inactive).

What about the GI50 [51] of the same compound?
Its GI50 is 2.76 µM (inactive).

What about the GI50 [52] of the same compound?
Its GI50 is 4.1 µM (inactive).

And the GI50 [53]?
The GI50 was 2.95 µM (inactive).

What about the GI50 [54] of the same compound?
The GI50 was 7.16 µM (inactive).
